Laboratory results reported in patent US20260235789A1, “THERAPEUTIC LENSES FOR USE AS OCULAR BANDAGE AND SIMULTANEOUSLY FOR THE ADMINISTRATION OF EYE DROPS” (EYE PHARMA SPA, priority 2021, published 2026).

Test system: Salmonella typhimurium
Assay: Bacterial proliferation assay (inhibition halo on agar plates)
Assay type: cell-based
Settings: before vs after passage through the ionic therapeutic contact lenses; 2×10^9/mL bacteria on agar-coated plates; 24 hours; FIG. 4
Experimental: The influence of lens interaction on the antibacterial effect of chloramphenicol was tested with a bacterial challenge using Salmonella typhimurium seeding 2×10^9/mL bacteria on agar-coated plates. An antibiotic disk was inserted in the middle of the plate to verify the inhibition halo around the dish after 24 hours. Both the chloramphenicol eye drops and the liquid suspending the therapeutic lenses for storage were tested. The antibacterial capacity of chloramphenicol was comparatively tested before and after the passage through the ionic therapeutic contact lenses according to the invention. The diameter of the clear halo around the chloramphenicol depot area (central white spot) was not different.

O=C(N[C@H](CO)[C@H](O)c1ccc([N+](=O)[O-])cc1)C(Cl)Cl [chloramphenicol]
diameter of the clear halo around the chloramphenicol depot area: not different
